{
  "source": "EPA's ToxValDB 9.5 (doi:10.2903/j.efsa.2005.28r)",
  "key": {"Aphidius rhopalosiphi": {"test_system": "Aphidius rhopalosiphi", "settings": "acute; duration: 7 days; mortality"}, "Apis mellifera": {"test_system": "Apis mellifera", "settings": "acute, mortality"}, "Bibionidae": {"test_system": "Bibionidae", "settings": "chronic/long-term, duration: 28 days"}, "Bird": {"test_system": "Bird", "settings": "reproductive; oral; feed"}, "Colinus virginianus": {"test_system": "Colinus virginianus", "settings": "acute, oral, mortality"}, "Daphnia magna": {"test_system": "Daphnia magna", "settings": "chronic/long-term; duration: 21 days; reproduction"}, "Oncorhynchus mykiss": {"test_system": "Oncorhynchus mykiss", "settings": "acute; duration: 96 hours; mortality"}, "Pimephales promelas": {"test_system": "Pimephales promelas", "settings": "chronic/long-term; duration: 35 days; growth"}, "Tagia sp.": {"test_system": "Tagia sp.", "settings": "acute; duration: 14 days; mortality"}},
  "data": [
    {"smiles": "CCCN(CCC)c1c([N+](=O)[O-])cc(C(F)(F)F)cc1[N+](=O)[O-]", "note": "[Trifluralin]", "values": [
      {"measurement": "LEL", "setting": "Aphidius rhopalosiphi", "value": 1200, "unit": "g/ha"},
      {"measurement": "LD50", "setting": "Apis mellifera; duration: 48 hours, dermal", "value": "> 100", "unit": "µg/piece"},
      {"measurement": "LD50", "setting": "Apis mellifera; oral, unspecified", "value": "> 100", "unit": "µg/piece"},
      {"measurement": "NOEC", "setting": "Bibionidae; development", "value": 0.25, "unit": "mg/L"},
      {"measurement": "NOEC", "setting": "Bibionidae; mortality", "value": 810, "unit": "mg/kg"},
      {"measurement": "NOEC", "setting": "Bird", "value": 1000, "unit": "mg/kg"},
      {"measurement": "LC50", "setting": "Colinus virginianus; diet", "value": 2970, "unit": "mg/kg"},
      {"measurement": "LD50", "setting": "Colinus virginianus", "value": "> 2250", "unit": "mg/kg"},
      {"measurement": "NOEC", "setting": "Daphnia magna", "value": 0.0507, "unit": "mg/L"},
      {"measurement": "LC50", "setting": "Oncorhynchus mykiss", "value": 0.088, "unit": "µg/mL"},
      {"measurement": "NOEC", "setting": "Pimephales promelas", "value": 0.0003, "unit": "mg/L"},
      {"measurement": "LD50", "setting": "Rattus norvegicus; acute, oral, mortality", "value": "> 5000", "unit": "mg/kg"},
      {"measurement": "LOAEL", "setting": "Rattus norvegicus; chronic, duration: 2 years, histopathology: neoplastic", "value": 30, "unit": "mg/kg-day"},
      {"measurement": "NOAEL", "setting": "Rattus norvegicus; reproduction developmental", "value": 148, "unit": "mg/kg-day"},
      {"measurement": "NOAEL", "setting": "Rattus norvegicus; subchronic, duration: 90 days", "value": 2.6, "unit": "mg/kg-day"},
      {"measurement": "LC50", "setting": "Tagia sp.", "value": "> 1000", "unit": "mg/kg"}
    ]}
  ]
}
